This is an account of results in US9944591B2, “Active compound and related composition for dermatological use in the pharmaceutical or cosmetic field” (GIULIANI S.P.A., priority 2014, dated 2018).

The subject of assay [1] is ROS (reactive oxygen species). As to the kind of experiment: Production of ROS by DCFH-DA assay (H2O2-induced oxidative stress). Type of assay: cell-based, human.
The subject of a further assay is TNF-α. As to the kind of experiment: Anti-inflammatory effects through gene expression of TNF-alpha on keratinocytes (qRT-PCR). In kind it is cell-based. Particulars: human keratinocytes NCTC 2544, 5 μM, 24 h, LPS 5 μg/ml; FIG. 3. The protocol: In such further test, an immortalized line of human keratinocytes NCTC 2544 is used (Perry V. P. et al., 1957) cultured in sterile flasks ([…]), incubated at 37° C. in a humid atmosphere at 5% CO2 in culture medium MEM (Minimum Essential Medium) supplemented with 10% fetal bovine serum (FBS), 2 mM glutamine, 1% non-essential amino acids, in the presence of 1% penicillin and streptomycin.
When the cells (human keratinocytes NCTC 2544) reached about 80% confluence, they were detached with trypsin/EDTA and seeded at a density of 1×10^6 cells/ml in 12-well plates and incubated at 37° C., 5% CO2 (24 h). […]
The effect of the compounds object of the study on the gene expression of TNF-α was evaluated by quantitative RT-PCR (quantitative reverse transcription-polymerasechainreaction-qRT-PCR). […]
Using a spectrophotometer (Jenway UV/VIS MOD: 6715, BS-6715B0), concentrations were calculated in μg/mL of total RNA extracted at a wavelength of 260 nm.
(§1) Finally, the integrity of RNA (2 μg/mL) was assessed by means of an electrophoresis run on 1% agarose gel. […]
(§2) Extracted and quantified RNA was diluted to a concentration of 2 μg/mL and reverse transcribed into cDNA. […]
(Quantitative PCR measures a nucleic acid by following its amplification.)

In assay [2] the test system is HAS1 (Hyaluronan Synthase 1). As to the kind of experiment: Gene expression of HAS1 (hyaluronan synthase 1) on fibroblasts (qRT-PCR). In kind it is cell-based. Particulars: BALB3T3 mouse fibroblasts, 24 h, 2.5 and 5 μM, FIG. 4. The protocol: In this third test, the mouse fibroblast cell line Balb 3T3 Clone A31 (ATCC CCL-163™) (Aaronson and Todaro, 1968) was used, cultured in sterile flasks ([…]), incubated at 37° C. in a humid atmosphere at 5% CO2 in DMEM (Dulbecco's Modified Eagle's Medium) added with 10% bovine fetal serum (CBS), 1% non-essential amino acids, in the presence of 1% penicillin and streptomycin.
The 1:3 split is done every 2 days upon achieving the monolayer by washing with 1×PBS (phosphate buffer without Ca^2+ and Mg^2+) and detachment of cells with a trypsin-EDTA solution at 37° C. for 2 minutes. […]
Gene expression of HAS1 in BALB3T3 cells was evaluated by relative quantitative RT-PCR (quantitative reverse transcription-polymerase chain reaction-qRT-PCR). […]
At the end of incubation with the active compounds of interest, cells were washed with PBS (1×) and finally subjected to RNA extraction procedure. At the end of the extraction, using a spectrophotometer (Jenway UV/VIS MOD: 6715, BS-6715B0), concentrations were calculated in μg/mL of total RNA extracted at a wavelength of 260 nm.
as §1, §2
The Taqman probe is a type of probe that allows the development of fluorescence as the amplification advances. […]

For `C/C=C/C=C/C=C/C(=O)NCCCC(=O)O` [compound of the invention, 4-((2E,4E,6E)-octa-2,4,6-trienamid)butanoic acid], the “% ROS produced/Ctr, compared to GABA” value in assay [1] (human keratinocytes NCTC2544, 0.5 μM, versus comparison compound GABA at same concentration, FIG. 2) is “superior antioxidant activity”. Also, the “% ROS produced/Ctr (antioxidant activity)” value in assay [1] (human keratinocytes NCTC2544, 16 h pre-treatment at 0.5 μM, 1 μM, 5 μM, then 1 mM H2O2 90 min, FIG. 1) is “antioxidant activity”. Further, the “gene expression of TNF-α (2-ΔΔCt) compared to positive control” value in the assay on TNF-α is reported as “reduced expression of TNF-α”. Further, the “gene expression of HAS1 compared to reference compound GABA” value in assay [2] (versus GABA) is “higher than the reference compound at both concentrations tested”. Also, in assay [2], the “gene expression of HAS1 (2^−ΔΔCt)” value was “increased gene expression of HAS1”.
